Tests used:
[1] = human gut metagenome, 24 h, 2 µM
[2] = human gut metagenome, 24 h, 2 µM; remark: listed apart in the source
[3] = human gut metagenome, 24 h, 2 µM; remark: listed apart in the source
[4] = human gut metagenome, 24 h, 2 µM; remark: listed apart in the source
[5] = human gut metagenome, 24 h, 2 µM; remark: listed apart in the source
[6] = The drug is tested on Z-027 corresponding to metagenome with ENA study accession number: PRJEB37062 and ENA sample accession number: ERS12561826 for biotransformation under anaerobic condition. The drug concentrations were measured over 9 timepoints collected between 0 and 24 hours of incubation by liquid-chromatography-coupled mass spectrometry (LC–MS); details: 2 µM
[7] = human gut metagenome, 24 h, 2 µM; remark: listed apart in the source
[8] = The drug is tested on Z-007 corresponding to rat gut metagenome with ENA study accession number: PRJEB37062 and ENA sample accession number: ERS12561807 for biotransformation under anaerobic condition. The drug concentrations were measured over 9 timepoints collected between 0 and 24 hours of incubation by liquid-chromatography-coupled mass spectrometry (LC–MS); details: 2 µM
[9] = The drug is tested on Z-022 corresponding to mouse gut metagenome with ENA study accession number: PRJEB37062 and ENA sample accession number: ERS12561821 for biotransformation under anaerobic condition. The drug concentrations were measured over 9 timepoints collected between 0 and 24 hours of incubation by liquid-chromatography-coupled mass spectrometry (LC–MS); details: 2 µM
[10] = human gut metagenome, 24 h, 2 µM; remark: listed apart in the source
[11] = human gut metagenome, 24 h, 2 µM; remark: listed apart in the source
[12] = human gut metagenome, 24 h, 2 µM; remark: listed apart in the source
[13] = The drug is tested on WLS-007 corresponding to human gut metagenome with ENA study accession number: PRJEB37062 and ENA sample accession number: ERS12561742 for biotransformation under anaerobic condition. The drug concentrations were measured over 9 timepoints collected between 0 and 24 hours of incubation by liquid-chromatography-coupled mass spectrometry (LC–MS); details: 2 µM
[14] = human gut metagenome, 24 h, 2 µM; remark: listed apart in the source
[15] = The drug is tested on WLS-350 corresponding to human gut metagenome with ENA study accession number: PRJEB37062 and ENA sample accession number: ERS12561789 for biotransformation under anaerobic condition. The drug concentrations were measured over 9 timepoints collected between 0 and 24 hours of incubation by liquid-chromatography-coupled mass spectrometry (LC–MS); details: 2 µM
[16] = The drug is tested on Z-023 corresponding to metagenome with ENA study accession number: PRJEB37062 and ENA sample accession number: ERS12561822 for biotransformation under anaerobic condition. The drug concentrations were measured over 9 timepoints collected between 0 and 24 hours of incubation by liquid-chromatography-coupled mass spectrometry (LC–MS); details: 2 µM
[17] = human gut metagenome, 24 h, 2 µM; remark: listed apart in the source
[18] = The drug is tested on Z-021 corresponding to metagenome with ENA study accession number: PRJEB37062 and ENA sample accession number: ERS12561820 for biotransformation under anaerobic condition. The drug concentrations were measured over 9 timepoints collected between 0 and 24 hours of incubation by liquid-chromatography-coupled mass spectrometry (LC–MS); details: 2 µM
[19] = human gut metagenome, 24 h, 2 µM; remark: listed apart in the source
[20] = The drug is tested on Z-010 corresponding to metagenome with ENA study accession number: PRJEB37062 and ENA sample accession number: ERS12561810 for biotransformation under anaerobic condition. The drug concentrations were measured over 9 timepoints collected between 0 and 24 hours of incubation by liquid-chromatography-coupled mass spectrometry (LC–MS); details: 2 µM
Further: call rule not given here.

Compound | Bacterial Biotransformation [1] | Bacterial Biotransformation [2] | Bacterial Biotransformation [3] | Bacterial Biotransformation [4] | Bacterial Biotransformation [5] | Bacterial Biotransformation [6] | Bacterial Biotransformation [7] | Bacterial Biotransformation [8] | Bacterial Biotransformation [9] | Bacterial Biotransformation [10] | Bacterial Biotransformation [11] | Bacterial Biotransformation [12] | Bacterial Biotransformation [13] | Bacterial Biotransformation [14] | Bacterial Biotransformation [15] | Bacterial Biotransformation [16] | Bacterial Biotransformation [17] | Bacterial Biotransformation [18] | Bacterial Biotransformation [19] | Bacterial Biotransformation [20]
CC(O)(CS(=O)(=O)c1ccc(F)cc1)C(=O)Nc1ccc(C#N)c(C(F)(F)F)c1 (stereo not given) [BICALUTAMIDE] | Compound NOT metabolized | Compound NOT metabolized | Compound NOT metabolized | Compound NOT metabolized | Compound NOT metabolized | Compound NOT metabolized | Compound NOT metabolized | Compound NOT metabolized | Compound NOT metabolized | Compound NOT metabolized | Compound NOT metabolized | Compound NOT metabolized | Compound NOT metabolized | Compound NOT metabolized | Compound NOT metabolized | Compound NOT metabolized | Compound NOT metabolized | Compound NOT metabolized | Compound NOT metabolized | Compound NOT metabolized
CCCC1O[C@@H]2C[C@H]3[C@@H]4CCC5=CC(=O)C=C[C@]5(C)[C@H]4[C@@H](O)C[C@]3(C)[C@]2(C(=O)CO)O1 (stereo not given in full) [BUDESONIDE] | Compound metabolized | Compound metabolized | Compound metabolized | Compound metabolized | Compound NOT metabolized | Compound NOT metabolized | Compound metabolized | Compound NOT metabolized | Compound NOT metabolized | Compound NOT metabolized | Compound metabolized | Compound metabolized | Compound metabolized | Compound metabolized | Compound metabolized | Compound NOT metabolized | Compound metabolized | Compound metabolized | Compound metabolized | Compound metabolized
O=C(NCc1ccccc1)OCCO [BURAMATE] | Compound NOT metabolized | Compound NOT metabolized | Compound NOT metabolized | Compound NOT metabolized | Compound NOT metabolized | Compound NOT metabolized | Compound NOT metabolized | Compound NOT metabolized | Compound NOT metabolized | Compound NOT metabolized | Compound NOT metabolized | Compound NOT metabolized | Compound NOT metabolized | Compound NOT metabolized | Compound NOT metabolized | Compound NOT metabolized | Compound NOT metabolized | Compound NOT metabolized | Compound NOT metabolized | Compound NOT metabolized
CCN(CC)CCOCCOC(=O)C1(c2ccccc2)CCCC1.O=C(O)CC(O)(CC(=O)O)C(=O)O [CARBETAPENTANE CITRATE] | Compound metabolized | Compound metabolized | Compound metabolized | Compound metabolized | Compound NOT metabolized | Compound NOT metabolized | Compound metabolized | Compound NOT metabolized | Compound metabolized | Compound metabolized | Compound metabolized | Compound metabolized | Compound NOT metabolized | Compound metabolized | Compound NOT metabolized | Compound NOT metabolized | Compound metabolized | Compound metabolized | Compound metabolized | Compound metabolized
O=C(O)COCCN1CCN(C(c2ccccc2)c2ccc(Cl)cc2)CC1 (stereo not given) [CETIRIZINE] | Compound metabolized | Compound metabolized | Compound metabolized | Compound metabolized | Compound metabolized | Compound NOT metabolized | Compound metabolized | Compound NOT metabolized | Compound metabolized | Compound metabolized | Compound metabolized | Compound metabolized | Compound metabolized | Compound metabolized | Compound metabolized | Compound metabolized | Compound metabolized | Compound metabolized | Compound metabolized | Compound metabolized

From ChEMBL document CHEMBL5724914, “Linking interpersonal differences in gut microbiota composition and drug biotransformation activity” (2024)
